For one compound, IC50 results are on record in ChEMBL document CHEMBL1130842, “Synthesis and in vitro cytotoxicity of lipophilic platinum(II) complexes” (Bioorg Med Chem Lett, 1998).

Assay type in all cases: functional, cell-based
One assay relates to Lung NSCLC-N6 cell-line. Put plainly: Cytotoxicity was evaluated against lung NSCLC-N6 cell-line by MTT assay. The settings on record: Homo sapiens. (Tetrazolium dyes change colour on reduction, which living cells bring about.)
Another assay concerns M96. Nature of the assay: Cytotoxicity was evaluated against melanoma M96 cell-line by MTT assay. Particulars: Homo sapiens.
Another assay relates to E39. Nature of the assay: Cytotoxicity was evaluated against renal E39 cell-line by MTT assay. The settings on record: Homo sapiens.
In another assay the test system is P388. Nature of the assay: Cytotoxicity was evaluated against leukemia P388 cell-line by MTT assay. Particulars: Mus musculus.

≈ marks a conversion by molar mass, not a printed value.

On to `CCCCCCCCCCCCCCC(N)CN` (centres undefined), for which the IC50 in the assay on Lung NSCLC-N6 cell-line came out at 1.1 µg/mL (≈ 4.29 µM); with M96, 7.8 µg/mL (≈ 30.4 µM); with E39, 5.3 µg/mL (≈ 20.7 µM); with P388, 0.1 µg/mL (≈ 0.39 µM).

In general, IC50 refers to the midpoint of a concentration-inhibition curve. A low value points to greater potency in that assay.
